From patent US9687480B2, “Chiral 1-(4-methylphenylmethyl)-5-oxo-{N-[(3-t-butoxycarbonyl-aminomethyl)]-piperidin-1-yl)-pyrrolidine as inhibitors of collagen induced platelet activation and adhesion” (Council of Scientific & Industrial Research, priority 2011, dated 2017)

Columns and labels:
hyperlipidemic hamsters [1] = assay: FeCl3 induced thrombosis in hyperlipidemic hamsters; type: in vivo; details: HCHF fed hamsters
Method: (§1) HCHF treated hamsters were anesthetized by urethane (1.25 g/kg, i.p.). The carotid artery was carefully dissected and a pulsed Doppler Probe (DBF-120A-CPx, CBI-8000, Crystal Biotech. USA) was placed around it to record the blood flow velocity and potency of the blood vessels. The carotid artery thrombosis was induced by FeCl3 as follows: a square (1×1 mm) of Whatman Chromatography paper was immersed in 30% FeCl3 solution for 5 min and placed on the carotid artery as described earlier (Kurz K D, Main B W, Sandusky G E. Rat model of arterial thrombosis induced by ferric chloride. Thromb Res 1990; 60(4):269-80). Thrombosis was monitored as the reduction in carotid artery blood flow. The time at which the blood-flow velocity was decreased to zero was recorded as the total of occlusion of the vessel.

[2] = test system: hamster whole blood (Collagen 2.5 μg/ml); assay: Whole blood aggregation in hyperlipidemic hamsters (ex vivo), collagen induced; details: HCHF hamsters ex vivo, aspirin 100 μM/kg, clopidogrel 30 μM/kg
rats = assay: FeCl3 induced carotid artery thrombosis in rats; type: in vivo; details: rats; compound 1 at the same dose as compound 6; aspirin at a very high dose
Method: as §1, with “Male SD rats” for “HCHF treated hamsters”, “Biotech,” for “Biotech.”, “patency” for “potency”, “20%” for “30%”, “occlusion (TTO)” for “occlusion”, “carotid artery. […] (Ferric Chloride induced thrombosis (FIG. 7))” for “vessel.”

hamster platelets = assay: Platelet adhesion on collagen coated surface (hyperlipidemic hamster model, ex vivo); type: in vivo, hamsters; details: hyperlipidemic hamsters, ex vivo
Method: Platelet adhesion to collagen was measured in polystyrene 96-well micro titer plates. Micro titer plates were coated with insoluble equine tendon native fibrillar type I collagen (Chrono-Log Corp. Havertown, USA), 2 μg/well in 5 mM acetic acid (Tandon N N, Ockenhouse C F, Greco […]. Adhesive functions of platelet lacking GPIV (CD36). Blood 1991; 78: 2809-13) overnight at 4° C. The unoccupied protein binding sites on the wells were blocked with 0.5% BSA in Tyrode's-HEPES buffer (136.7 mM NaCl, 13.8 mM NaHCO3. 0.36 mM NaH2PO4.H2O, 2.6 mM KCl, 1.0 mM MgCl2.6H2O, 5.5 mM glucose, pH 7.4) at room temperature for 1 hour, and then rinsed once with PBS. Washed platelets were suspended in the Tyrode's-HEPES buffer and added to the wells (2×10^7 cells/well) for 1 h at room temperature. After three washes with PBS, the number of adherent platelets was evaluated colorimetrically (Bellavite P., Andrioli G., Gizzo P., Arigliano P., Chirumbolo […] colorimetric method for the measurement of platelet adhesion in microtiter plates. Anal. Blochem. 1994; 216:444-450). Briefly, 150 μl of a 0.1 M citrate buffer (pH 5.4), containing 5 mM p-nitrophenyl phosphate and 0.1% TritonX-100 was added to the wells after washing. After incubation for 30 minutes at 25° C. in the absence of ambient light, colour was developed by the addition of 100 μl of 2N NaOH and the absorbance at 405 nm was read using a microplate reader (Powerware XS, Biotek, USA).

[3] = test system: hamster whole blood (ADP 10 μM); assay: Whole blood aggregation in hyperlipidemic hamsters (ex vivo), ADP induced; details: HCHF hamsters ex vivo, aspirin 100 μM/kg, clopidogrel 30 μM/kg
hyperlipidemic hamsters [4] = assay: Arterio-venous shunt model in hyperlipidemic hamsters; type: in vivo; details: hyperlipidemic hamsters; compound 6 at 10 μM/kg
mice = assay: Tail bleeding time in mice; type: in vivo; details: aspirin 170 μM/kg, clopidogrel 30 μM/kg
Method: Bleeding time in mice was evaluated by the method of Dejana et al, (Dejana E, Callioni A, Quintana A, Gaetano G. Bleeding time in laboratory animals. II—A comparison of different assay conditions in rats. […] The time elapsed from the tip incision to the stoppage of bleeding was determined as the bleeding time. The preferred compounds, aspirin (30 mg/kg) or vehicle was given orally 60 min prior to the tail incision in a group of 5 mice each.

mouse platelets = assay: Platelet adhesion over collagen matrix (mice, ex vivo); type: in vivo; details: oral route, compound 6 10, 30, 100 μM/kg, aspirin 100 μM/kg
From the text: FIG. 4b: Adhesion of mouse platelets on collagen matrix as observed under fluorescence microscope 40× (ex vivo method). Different pictures show the different treatment performed. Washed murine platelets (2×10^6/ml) were obtained from animals pretreated with the compound (compound 6) (different doses) and seeded on BSA or Collagen (fibrillar) coated cover slips (A, B). Platelets from untreated animals were allowed to adhere on uncoated and BSA coated cover slip respectively to delineate the possibility of non specific binding. C, D. control platelets were adhered on collagen coated cover slip (control). E. F&G. Platelets obtained from animals pre-treated with compound 6 (10 μM/kg, 30 μM/kg & 100 μM/kg) respectively were adhered on collagen coated cover slip. H, I. Platelets from Aspirin (100 μM/kg) & Clopidogrel treated (100 μM/kg) animals resp. (standard Drugs) and adhered on collagen coated cover slip (n=5, 5 animals/group/experiment).

[5] = test system: hamster whole blood (Thrombin 1 U/ml); assay: Whole blood aggregation in hyperlipidemic hamsters (ex vivo), thrombin induced; details: HCHF hamsters ex vivo; aspirin 100 μM/kg, clopidogrel 30 μM/kg

| SMILES | time to occlusion (TTO) (hyperlipidemic hamsters [1]) | collagen induced whole blood platelet aggregation [2] | collagen induced whole blood platelet aggregation ([2]; listed as Aspirin) | time to occlude the carotid artery (TTO) (rats) | platelet adhesion over collagen coated surface (hamster platelets) | ADP induced whole blood platelet aggregation [3] | thrombus weight (hyperlipidemic hamsters [4]) | bleeding time, standard drugs (mice) | platelet adhesion (ex vivo) over collagen surface (mouse platelets) | thrombin induced whole blood platelet aggregation [5] | ADP induced whole blood platelet aggregation ([3]; listed as Clopidogrel) |
| --- | --- | --- | --- | --- | --- | --- | --- | --- | --- | --- | --- |
| CC(=O)Oc1ccccc1C(=O)O [aspirin, reference compound] | significantly prolonged | but not collagen induced aggregation | reduced platelet aggregation in response to collagen | remained ineffective | no alteration | can only inhibit ADP and Thrombin | significantly reduced | significantly prolonged | did not exhibit any inhibitory effect | can only inhibit ADP and Thrombin |  |
| COC(=O)[C@H](c1ccccc1Cl)N1CCc2sccc2C1 [clopidogrel, reference compound] | significantly prolonged | inhibited ADP and collagen induced platelet aggregation |  |  | significant reduction | can only inhibit ADP induced aggregation | significantly reduced |  |  |  | inhibited ADP and collagen induced platelet aggregation |
